Assay results as given in patent US20220125753A1, “COMPOSITIONS AND METHODS FOR TREATING ISCHEMIC STROKE” (The General Hospital Corporation, priority 2015, published 2022).
“Also recorded” adds a separate entry of the source. Read-outs that look alike come from different tables or passages of the source.

Key:
[1] = for maximum plasma concentration / time of maximum plasma concentration: mean ± spread
[2] = system: transient middle cerebral artery occlusion; conditions: adult rats; intracerebral injection; cited from earlier work
[3] = cited from earlier work
[4] = system: Aß amyloid peptide; conditions: at nanomolar concentrations; laboratory testing (Hori 2015; Elmaleh 2014); cited from earlier work
[5] = clinical; conditions: human, in vivo, inhaled or intranasal, AUC (plasma)
[6] = system: experimental cerebral ischemia/reperfusion; conditions: cited from earlier work
[7] = system: Aß amyloid peptide; assay: In vitro assays of Aß amyloid peptide polymerization into oligomers and aggregates; assay type: biochemical; conditions: at nanomolar concentrations
Procedure: One of the most routinely used approaches to monitor Aβ polymerization is the thioflavin T binding assay (Elmaleh, 2014; Hori, 2015). […] AO peptide at 5 μM was mixed with 10 μM thioflavin T with drug at different concentrations.
Fibrillization of synthetic Aß40 (left column) or Aß42 (right column) peptides was followed over 1 hour.

[8] = system: unilateral hypoxia-ischemia in neonatal rats; conditions: given at the end of the hypoxic period, assessed at 48 hours; cited from earlier work
[9] = system: hemorrhage formation after tPa treatment; conditions: adult rats; intracerebral injection; cited from earlier work
[10] = system: APP/PS1 mice; assay: Short-term treatment of APP/PS1 mice, TBS soluble Aß in brain (ELISA, immunoblotting); assay type: in vivo; conditions: after 1 week of peripherally administered cromolyn sodium (intraperitoneally daily), 7.5 months old APP/PS1 mice
Procedure: One week after daily injection, tris-buffered saline (TBS) soluble Aßx-40 (left graph) and Aßx-42 (right graph) were measured under the condition with (black bar) or without (white bar) pre-incubation with guanidine (Gdn)-HCl using Aß ELISA. The value under the incubation with Gdn-HCl show the concentration of total TBS soluble Aß, and the value under the no incubation with Gdn-HCl show the concentration of monomeric Aß. FIG. 5B: oligomeric Aß in TBS soluble brain extracts were measured using 82E1/82E1 Aß oligomer specific ELISA. FIG. 5C illustrates representative immunoblotting of TBS soluble brain extracts with anti-Aß antibody (6E10 and 82E1) (left panel). The densitometry of monomeric Aß was quantified (right graph). (n=3-5/group; *, P<0.05, **, P<0.01).

[11] = system: microglial cells; assay: Microglia culture incubated with synthetic Aß40 or Aß42, Aß ELISA of media; assay type: cell-based; conditions: 0.10 nM, 10 μM or 1 mM Cromolyn Sodium, 16 hours
Procedure: After the incubation, the concentrations of […]-42 (right panel) in media were measured using Aß ELISA and normalized with microglia cell number and according to the PBS control condition. (n=3 experiments; *, P<0.05, **, P<0.01)

[12] = system: APP/PS1 mice; assay: Immunostaining of Aß and microglial marker Iba1 in brain sections; assay type: in vivo; conditions: 3.15 mg/kg daily for seven days vs PBS
[13] = 34.2 mg double inhaled dose, range

Compound: O=C([O-])c1cc(=O)c2c(OCC(O)COc3cccc4oc(C(=O)[O-])cc(=O)c34)cccc2o1.[Na+].[Na+] [Cromolyn]
- maximum plasma concentration ([1]; 17.1 mg single inhaled dose, healthy volunteers): 47.1 ± 33.6 ng/mL
- time of maximum plasma concentration ([1]; 17.1 mg single inhaled dose): 23.3 ± 16.9 min
- time of maximum plasma concentration, range ([1]; 17.1 mg single inhaled dose, range): 5 to 60 min
- maximum plasma concentration, range ([1]; 17.1 mg single inhaled dose, range over subjects): 14.0 to 133 ng/mL
- maximum plasma concentration ([1]; 34.2 mg double inhaled dose): 95.0 ± 45.5 ng/mL
- time of maximum plasma concentration ([1]; 34.2 mg double inhaled dose): 22.2 ± 19.4 min
- maximum plasma concentration, range [1, 13]: 36.1 to 236 ng/mL
- time of maximum plasma concentration, range [1, 13]: 5 to 60 min
- neutrophil accumulation [2]: reduced
- variability of plasma levels following inhalation [3]: high intraand inter-subject variability
- cromolyn uptake by asthmatics ([3]; inhalation, compared with healthy volunteers): lower than by healthy volunteers
- binding to and inhibition of amyloid β (Aβ) peptide oligomerization [4]: bind to and inhibit
- AUC ([5]; 17.1 mg, 17.1 mg single dose inhalation, mean ± spread): 148 ± 67.1 ng·h/mL
- AUC ([5]; 17.1 mg, range, 17.1 mg single dose inhalation): 44.7 to 287 ng·h/mL
- AUC ([5]; 34.2 mg, 34.2 mg double dose inhalation, mean ± spread): 254 ± 93.8 ng·h/mL
- AUC ([5]; 34.2 mg, range, 34.2 mg double dose inhalation): 122 to 443 ng·h/mL
- survival of experimental animals [6]: improved survival
- inhibition of Aß aggregation / polymerization into oligomers and higher order aggregates [7]: inhibition; also recorded: effectively inhibits
- glial activation [8]: limited
- mast cell migration/degranulation [8]: limited
- neuronal loss [8]: limited
- hemorrhage formation after tPa treatment [9]: inhibited

Compound: O=C(O)c1cc(=O)c2c(OCC(O)COc3cccc4oc(C(=O)O)cc(=O)c34)cccc2o1 [cromolyn sodium]
- decrease of total soluble Aβ levels [10]: over 50%
- Aß40 levels in media of microglia culture ([11]; 50 nM synthetic Aß40): dose-dependent decrease
- Aß42 levels in media of microglia culture ([11]; 50 nM synthetic Aß42): dose-dependent decrease
- percentage of Iba1 immunoreactivity overlapping with amyloid [12]: higher percentage
- percentage of Iba1 immunoreactivity overlapping with amyloid ([12]; listed as Cromolyn Sodium): increased overlap
